These results are taken from patent publication US12029744B2, “Bicyclic heteroaryl derivatives as ectonucleotide pyrophosphatase phosphodiesterase 1 inhibitors” (Riboscience LLC, priority 2019, dated 2024).

Structures are written as SMILES.

The first assay has as its target T1, ENPP1 (Homo sapiens, UniProt P22413).
T1 sequence (P22413 1-925): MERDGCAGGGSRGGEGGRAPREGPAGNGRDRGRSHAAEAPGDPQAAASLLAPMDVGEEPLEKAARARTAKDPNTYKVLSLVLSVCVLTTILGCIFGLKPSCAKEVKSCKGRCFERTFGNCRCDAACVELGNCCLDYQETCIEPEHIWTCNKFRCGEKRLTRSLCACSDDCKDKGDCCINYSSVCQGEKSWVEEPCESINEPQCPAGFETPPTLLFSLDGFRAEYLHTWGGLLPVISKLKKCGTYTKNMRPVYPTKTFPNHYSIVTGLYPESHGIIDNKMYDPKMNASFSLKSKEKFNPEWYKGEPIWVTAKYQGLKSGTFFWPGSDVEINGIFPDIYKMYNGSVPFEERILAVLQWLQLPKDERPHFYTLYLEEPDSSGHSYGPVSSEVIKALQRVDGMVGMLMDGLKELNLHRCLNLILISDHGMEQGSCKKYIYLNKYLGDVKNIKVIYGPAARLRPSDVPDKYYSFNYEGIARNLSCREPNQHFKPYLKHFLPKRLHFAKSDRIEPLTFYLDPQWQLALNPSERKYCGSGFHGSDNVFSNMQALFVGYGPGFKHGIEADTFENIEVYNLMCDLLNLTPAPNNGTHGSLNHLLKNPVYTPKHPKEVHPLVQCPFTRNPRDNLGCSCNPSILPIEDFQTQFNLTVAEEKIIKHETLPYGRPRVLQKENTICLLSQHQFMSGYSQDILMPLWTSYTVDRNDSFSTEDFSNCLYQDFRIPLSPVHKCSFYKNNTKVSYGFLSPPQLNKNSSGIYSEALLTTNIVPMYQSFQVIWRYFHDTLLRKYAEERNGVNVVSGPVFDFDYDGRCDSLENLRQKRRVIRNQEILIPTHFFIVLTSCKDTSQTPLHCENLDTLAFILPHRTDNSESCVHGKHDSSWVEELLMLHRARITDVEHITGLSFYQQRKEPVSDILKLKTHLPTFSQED
The assay is described as follows: Measurement of pNP-TMP hydrolysis by ENPP1 (enzyme activity assay, absorbance at 405 nm). The class given is biochemical.
Settings: not given
The procedure: Measurement of pNP-TMP Hydrolysis by ENPP1
p-Nitrophenyl thymidine 5′-monophosphate (pNP-TMP) is a synthesized substrate for ENPP1. The ENPP1 enzyme activity assay with pNP-TMP substrate was conducted as follows:
Incubation of ENPP1 with compounds was set at 25° C. for 10 min. […] For each compound dilution, wells with assay buffer (50 mM Tris-HCl, pH8.8, 250 mM NaCl, 0.1 mg/ml BSA, 1% DMSO) only but no ENPP1 were included as controls for subtraction of test compound derived absorbance at 405 nm.
Absorbance at 405 nm was recorded immediately in kinetic mode by PerkinElmer 2300 Enspire multimode plate reader.
For each inhibitor, the specific ENPP1 activity was calculated using the following equation: ENPP1 activity (pmol/min/μg)=Adjusted Vmax (OD405 nm/min)×conversion factor (pmol/OD405 nm)/amount of enzyme (μg)
Adjusted Vmax=V0×(Km+(S))/(S).
V0=(OD405 nm with ENPP1−OD405 nm ENPP1 blank)/minutes. OD405 nm was plotted, with blank subtracted, against time (minutes), the initial linear rate is V0. […]
The slope is the conversion factor. The percent ENPP1 activity for each sample was calculated using the following equation: % enzyme activity=sample enzyme activity/MAX Activity×100%.
To determine the IC50 for each compound, compound concentration values and percent enzyme activity values were inserted into GraphPad Prism (GraphPad Prism version 7.0 for Windows, GraphPad Software, La Jolla California USA, www.graphpad.com), and Prism's Transform analysis was used to convert the x-axis values (compound concentration) to logarithms. A sigmoidal variable slope nonlinear regression analysis was performed using the following equation: Y=Bottom+(Top−Bottom)/(1+10^[…])).
The term Ki denotes a dissociation constant, usually derived from enzyme kinetics or from competition with a known ligand. As for `NC(=O)c1ccc2c(ncn2Cc2ccc(P(=O)(O)O)cc2)n1` [Compound 138, 4-((5-carbamoylimidazo[4,5-b]pyridin-1-yl)methyl)phenylphosphonic acid], the inhibition constant Ki is below 100 nM.

The assay is the same for the next values; noted with them: substrate pNP-TMP 500 μM, KM 232 μM; Ki from IC50 by Cheng-Prusoff; read-out: Ki (pNP-TMP).
As for `CCc1cc2c(O)nccc2n1Cc1ccc(B(O)O)cc1` [Compound 106, 4-((2-ethyl-4-hydroxypyrrolo[3,2-c]pyridin-1-yl)methyl)phenylboronic acid], the inhibition constant (Ki) was below 10 nM.
Same read-out and setting: for `COc1ccc2c(ncn2Cc2ccc(B(O)O)cc2)n1` [Compound 125, 4-((5-methoxyimidazo[4,5-b]pyridin-1-yl)methyl)phenylboronic acid] the value was below 10 nM; for `Cc1nc2cc(C(N)=O)ccc2n1Cc1ccc(P(=O)(O)O)cc1` [Compound 136, 4-((5-carbamoyl-2-methyl-1,3-benzodiazol-1-yl)methyl)phenylphosphonic acid], below 100 nM.
Still for that read-out and setting: to `N#Cc1ccc2c(c1)ncn2Cc1ccc(P(=O)(O)O)cc1` [Compound 24, (4-((5-cyano-1H-benzo[d]imidazol-1-yl)methyl)phenyl)phosphonic acid] belongs below 1000 nM; to `NC(=O)c1ccc2c(cnn2Cc2ccc(B(O)O)cc2)c1` [Compound 34, 4-((5-carbamoylindazol-1-yl)methyl)phenylboronic acid], below 100 nM.
Same read-out and setting: for `Nc1nc2c(ncn2Cc2ccc(B(O)O)cc2)c(=O)[nH]1` [Compound 5, 4-((2-amino-6-oxo-1H-purin-9-yl)methyl)phenylboronic acid] the value was below 100 nM.
As for `CC(C)c1cc2c(O)nccc2n1Cc1ccc(B(O)O)cc1` [Compound 107, 4-((4-hydroxy-2-isopropylpyrrolo[3,2-c]pyridin-1-yl)methyl)phenylboronic acid], the Ki was below 100 nM.
As for `CC(C)c1nc2cc(C(N)=O)ccc2n1Cc1ccc(B(O)O)cc1` [Compound 37, 4-((5-carbamoyl-2-isopropyl-1,3-benzodiazol-1-yl)methyl)phenylboronic acid], the Ki is below 10 nM.
On to `NC(=O)c1ccc2c(c1)c(Cl)cn2Cc1ccc(P(=O)(O)O)cc1` [Compound 143, 4-((5-carbamoyl-3-chloroindol-1-yl)methyl)phenylphosphonic acid], for which the Ki is below 1000 nM.
The same measure, in the same setting: for `Cc1nc2cc(C(N)=O)ccc2n1Cc1ccc(B(O)O)cc1` [Compound 36, (4-((5-carbamoyl-2-methyl-1H-benzo[d]imidazol-1-yl)methyl)phenyl)boronic acid] the value was below 10 nM; for `O=c1[nH]cnc2c1c(F)cn2Cc1ccc(P(=O)(O)O)cc1` [Compound 134, 4-((5-fluoro-4-oxo-3H-pyrrolo[2,3-d]pyrimidin-7-yl)methyl)phenylphosphonic acid], below 100 nM.
Still for that read-out and setting: for `NC(=O)c1ccc2c(cnn2Cc2ccc(P(=O)(O)O)cc2)c1` [Compound 65, 4-((5-carbamoylindazol-1-yl)methyl) phenylphosphonic acid] the value was below 100 nM; for `Cc1cc2nc(C(N)=O)ccc2n1Cc1ccc(B(O)O)cc1` [Compound 77, 4-((5-carbamoyl-2-methylpyrrolo[3,2-b]pyridin-1-yl)methyl) phenylboronic acid], below 10 nM; for `NC(=O)c1ccc2c(c1)ncn2Cc1ccc(P(=O)(O)O)cc1` [Compound 49, 4-((5-carbamoyl-1,3-benzodiazol-1-yl)methyl)phenylphosphonic acid], below 1000 nM.
Regarding `COC(=O)c1ccc2c(c1)ncn2Cc1ccc(B(O)O)cc1` [Compound 41, 2,2,2-trifluoroacetic acid--(4-((5-(methoxycarbonyl)-1H-benzo[d]imidazol-1-yl)methyl)phenyl)boronic acid (1/1)], the Ki was below 100 nM.
On the same count and under the same terms, to `COc1cc2c(cc1C(N)=O)ncn2Cc1ccc(B(O)O)cc1` [Compound 32, 4-((5-carbamoyl-6-methoxy-1,3-benzodiazol-1-yl)methyl)phenylboronic acid] belongs below 100 nM.
Still for that read-out and setting: for `COc1cc2ncn(Cc3ccc(B(O)O)cc3)c2cc1OC` [Compound 1, 4-((5,6-dimethoxy-1,3-benzodiazol-1-yl)methyl)phenylboronic acid] the value was below 100 nM; for `CCc1nc2c(O)nccc2n1Cc1ccc(B(O)O)cc1` [Compound 73, 4-((2-ethyl-4-hydroxyimidazo [4,5-c]pyridin-1-yl)methyl) phenylboronic acid], below 100 nM.
Turning to `OB(O)c1ccc(Cn2cnc3c(C(F)F)cccc32)cc1` [Compound 130, 4-((4-(difluoromethyl)-1,3-benzodiazol-1-yl)methyl)phenylboronic acid], the Ki was below 1000 nM.
The same measure, in the same setting: to `Cc1nc2nc(C(N)=O)ccc2n1Cc1ccc(B(O)O)cc1` [Compound 144, (4-((5-carbamoyl-2-methyl-1H-imidazo[4,5-b]pyridin-1-yl)methyl)phenyl)boronic acid] belongs below 10 nM; to `NC(=O)c1nccc2c1ncn2Cc1ccc(B(O)O)cc1` [Compound 96, 4-((4-carbamoylimidazo[4,5-c]pyridin-1-yl)methyl)phenylboronic acid], below 10 nM.
Still for that read-out and setting: to `O=P(O)(O)c1ccc(Cn2ccc3c(O)nccc32)cc1` [Compound 56, (4-((4-hydroxy-1H-pyrrolo[3,2-c]pyridin-1-yl)methyl)phenyl)phosphonic acid] belongs below 100 nM; to `O=c1[nH]cnc2c1ncn2Cc1ccc(B(O)O)cc1` [Compound 3, 4-((6-oxo-1H-purin-9-yl)methyl)phenylboronic acid], below 1000 nM.
On the same count and under the same terms, to `OB(O)c1ccc(Cn2cnc3nc(O)ccc32)cc1` [Compound 127] belongs below 10 nM; to `NC(=O)c1ccc2c(ncn2Cc2ccc(B(O)O)cc2)n1` [Compound 59, 4-((5-carbamoylimidazo[4,5-b]pyridin-1-yl)methyl)phenylboronic acid], below 10 nM; to `O=P(O)(O)c1ccc(Cn2cnc3nc(O)ccc32)cc1` [Compound 150, 4-((5-hydroxyimidazo[4,5-b]pyridin-1-yl)methyl)phenylphosphonic acid], below 100 nM.
In the case of `CCc1nc2ccnc(O)c2n1Cc1ccc(B(O)O)cc1` [Compound 74, 4-((2-ethyl-4-hydroxyimidazo[4,5-c]pyridin-3-yl)methyl)phenylboronic acid], the Ki is below 1000 nM.
On the same count and under the same terms, to `COc1nccc2c1cnn2Cc1ccc(B(O)O)cc1` [Compound 98, 4-((4-methoxypyrazolo [4,3-c]pyridin-1-yl)methyl) phenylboronic acid] belongs below 1000 nM.
As for `O=P(O)(O)c1ccc(Cn2ncc3c(O)nccc32)cc1` [Compound 64, 4-((4-hydroxypyrazolo[4,3-c]pyridin-1-yl)methyl)phenylphosphonic acid], the Ki is below 100 nM.
The same measure, in the same setting: for `CC(C)c1nc2c(O)nccc2n1Cc1ccc(B(O)O)cc1` [Compound 75, 4-((4-hydroxy-2-isopropylimidazo[4,5-c]pyridin-1-yl)methyl) phenylboronic acid] the value was below 100 nM; for `N#Cc1ccc2c(c1)ncn2Cc1ccc(B(O)O)cc1` [Compound 15, 4-((5-cyano-1,3-benzodiazol-1-yl)methyl)phenylboronic acid], below 10 nM; for `NC(=O)c1ccc2c(ccn2Cc2ccc(P(=O)(O)O)cc2)c1` [Compound 142, 4-((5-carbamoylindol-1-yl)methyl)phenylphosphonic acid], below 1000 nM.
Still for that read-out and setting: for `CC(C)c1nc2nc(C(N)=O)ccc2n1Cc1ccc(B(O)O)cc1` [Compound 146, 4-((5-carbamoyl-2-isopropylimidazo[4,5-b]pyridin-1-yl)methyl)phenylboronic acid] the value was below 10 nM.
